The text below walks through data of PubChem BioAssay AID1996.

Molecules are shown by their SMILES. Converted amounts (≈) assume the structure as drawn.

For the data set the following is noted: buffer; pH 7.4; 200.0 µM.
A word on the kinetic solubility: it is solubility judged after dilution from a stock solution rather than from solid. For the compound `CCC1(c2ccccc2)NC(=O)N(CC(=O)NC2CCCCCC2)C1=O` (configuration not stated), the kinetic solubility is 0.0378 mg/mL (≈ 106 µM). `CC1(C)CC(=O)N(c2ccc(Cl)c(Cl)c2)C(=O)C1` showed a kinetic solubility of 0.0096 mg/mL (≈ 33.5 µM). In the case of `COc1ccccc1C(=O)N/C(=C\c1ccccc1)C(=O)NCc1ccco1` it was > 0.0565 mg/mL.

With `Cc1nn(C)c(C)c1NS(=O)(=O)c1ccc(N2CCCC2=O)cc1`, the solubility (kinetic) was > 0.0523 mg/mL. With `Cc1ccccc1C1NC(=S)NC2=C1C(=O)CCC2` (configuration not stated), the solubility (kinetic) is > 0.0409 mg/mL. On to `CN1CCN(CC(=O)c2ccccc2F)CC1.O=C(O)C(=O)O`, for which the solubility (kinetic) was 0.0429 mg/mL. Under `CN(C)S(=O)(=O)c1cccc(NC(=O)c2c[nH]c3ccccc23)c1` stands 0.0426 mg/mL (≈ 124 µM); under `O=C(CSC1=Nc2ccccc2C2CC=NN12)NCc1ccco1` (configuration not stated), > 0.0511 mg/mL; under `CC1CCCN(C2(O)C(=O)Nc3ccc([N+](=O)[O-])cc32)C1` (configuration not stated), 0.0166 mg/mL (≈ 57 µM). For the compound `COc1cc(OC)c(C(=O)NC23CC4CC(CC(C4)C2)C3)cc1OC`, the kinetic solubility amounted to 0.0071 mg/mL (≈ 20.6 µM). Turning to `O=C(COC(=O)c1ccc(O)cc1)NC1CCCCCC1`, the kinetic solubility is > 0.0437 mg/mL. `COC(=O)Cc1ccc(NC(=S)N2CCC(Cc3ccccc3)CC2)cc1` showed a solubility (kinetic) of 0.0065 mg/mL (≈ 17 µM). Consider `COc1ccc(CCC(=O)NCc2ccccc2OC)cc1`, for which the kinetic solubility is > 0.0449 mg/mL. `O=C1CSC(c2ccccc2)N1c1ccccc1F` (configuration not stated) displayed a solubility (kinetic) of 0.0403 mg/mL (≈ 147 µM).

In turn, `O=c1[nH]c(-c2ccccc2)cnc1-c1ccccc1` registered a kinetic solubility of 0.0004 mg/mL (≈ 1.61 µM). In the case of `COc1cccc(/C=C(\C)C(=O)c2c(C)cc(C)[nH]c2=O)c1OC` it was > 0.0491 mg/mL; in that of `COc1ccc(C(=O)NCc2ccccc2C)cc1S(=O)(=O)NC1CCCC1`, 0.0336 mg/mL (≈ 83.5 µM).

With `CCC(OC(=O)c1nsc(Cl)c1Cl)C(=O)NC(C)(C)C` (configuration not stated), the kinetic solubility was found to be 0.0466 mg/mL (≈ 137 µM). Under `CC(=O)OC(CC(=O)O)C[N+](C)(C)C.[Cl-]` (configuration not stated) stands > 0.036 mg/mL. `CC(C)Cc1cc(C(=O)Nc2ccccc2)c2ccccc2n1` displayed a kinetic solubility of 0.0039 mg/mL (≈ 12.8 µM).

Regarding `O=C(NCCOC(=O)c1ccc(F)cc1)c1ccc(F)cc1`, the solubility (kinetic) stood at 0.0104 mg/mL (≈ 34.1 µM). `COc1cc(C(=O)NC(c2ccccc2)c2ccccc2)cc(OC)c1OC`: the solubility (kinetic) was < 0.0008 mg/mL. As to `O=C(/C=C/c1cccc([N+](=O)[O-])c1)N1CCN(c2ccccn2)CC1`, the kinetic solubility came to 0.0031 mg/mL (≈ 9.16 µM).

Take `Cc1cc(C(=O)COC(=O)CC(NC(N)=O)c2ccc(Cl)cc2)c(C)n1C` (configuration not stated): the kinetic solubility stood at 0.0292 mg/mL (≈ 74.5 µM).

With `CCOC(=O)C(Cc1c(F)cccc1Cl)c1ccno1` (configuration not stated), the kinetic solubility is 0.0296 mg/mL (≈ 99.4 µM). Turning to `COc1ccc(CCC(=O)NC2CCCCC2)cc1`, the kinetic solubility was > 0.0392 mg/mL.

`CN1CCCN(S(=O)(=O)c2ccccc2)CC1.Cl` displayed a kinetic solubility of 0.0398 mg/mL. As for `CC1(C)Cc2nc(Cl)c(C(N)=O)cc2CO1`, the solubility (kinetic) was > 0.0361 mg/mL. Under `O=C(Nc1ccccc1N1CCCC1)c1ccccc1F` stands 0.0198 mg/mL (≈ 69.6 µM); under `Cn1c2ccccc2n2c(=O)cc(-c3ccccc3)c(C#N)c12`, < 0.0002 mg/mL; under `CCCCc1nc(C(N)=O)c2[nH]c(=O)n(-c3ccccc3F)c2n1`, 0.0037 mg/mL (≈ 11.2 µM). With `O=C(Cc1ccc([N+](=O)[O-])cc1)NC(C(=O)[O-])C(O)c1cccc([N+](=O)[O-])c1.[Na+]` (configuration not stated), the solubility (kinetic) is > 0.0617 mg/mL. `COCCNC(=S)Nc1ccc2[nH]c(=O)[nH]c2c1`: the kinetic solubility was > 0.0399 mg/mL. Turning to `Cc1ccc(C(=O)NCC(=O)Nc2ccncc2)cc1C`, the kinetic solubility came to 0.0123 mg/mL (≈ 43.4 µM).

As for `Cc1cc(C(F)(F)F)nc(SCC(=O)NC2CCCCC2)n1`, the solubility (kinetic) was 0.0332 mg/mL (≈ 99.6 µM). As for `CCN(CC)CCSc1nc2ccc(OC)cc2[nH]1.Cl`, the solubility (kinetic) is > 0.0528 mg/mL. In the case of `O=C(c1cc(COc2ccc(F)cc2F)on1)N1CCOCC1`, the kinetic solubility was > 0.0486 mg/mL. With `COC(=O)/C(C#N)=C/c1ccc(N2CCOCC2)c([N+](=O)[O-])c1`, the solubility (kinetic) came to 0.011 mg/mL (≈ 34.7 µM). As for `COC(=O)CNC(=S)NC(=O)c1ccc(C(C)(C)C)cc1`, the solubility (kinetic) turned out to be 0.0254 mg/mL (≈ 82.4 µM). The compound `O=C1/C(=C\c2ccc(O)c(O)c2)SC(=S)N1Cc1ccccc1` yielded a kinetic solubility of 0.004 mg/mL (≈ 11.6 µM). On to `Cc1cc(C)cc(OCC(=O)OCC(=O)NC2CC2)c1`, for which the solubility (kinetic) was > 0.0416 mg/mL. Under `Cc1ccc(OCc2ccc(C(=O)NN)o2)c([N+](=O)[O-])c1` stands > 0.0437 mg/mL; under `O=C(COC(=O)c1cccc(O)c1)NCc1ccc2c(c1)OCO2`, > 0.0494 mg/mL.

For `Cc1nc2ccccc2c(=O)n1CCc1ccc(O)cc1`, the kinetic solubility is > 0.042 mg/mL. `COC(=O)c1cc(Cl)c(NC(=O)Cc2ccccc2)cc1OC` gave a solubility (kinetic) of 0.0256 mg/mL (≈ 76.7 µM). Take `Cc1cc(NC(=O)c2ccc(C)o2)no1`: the kinetic solubility is > 0.0309 mg/mL. `CN(CCC(=O)c1ccccc1)CCC(=O)c1ccccc1` had a solubility (kinetic) of 0.0423 mg/mL (≈ 143 µM).

As to `O=C1CN(C(=O)c2ccc(Cl)c([N+](=O)[O-])c2)c2ccccc2N1`, the solubility (kinetic) is > 0.0498 mg/mL. Regarding `Cc1cc(OCC(=O)N(C)Cc2ccccc2)cc(C)c1Cl`, the solubility (kinetic) came to 0.0083 mg/mL (≈ 26.1 µM).

On to `O=c1[nH]cnc2c1ncn2[C@@H]1C[C@@H](O)[C@H](CO)O1`, for which the solubility (kinetic) is > 0.0378 mg/mL. In the case of `CCCCOc1ccc(-c2ncc([N+](=O)[O-])cn2)cc1` it was < 0.0002 mg/mL. In the case of `O=C(Nc1ccc2c(c1)CCC2)c1cccc(OC(F)F)c1`, the solubility (kinetic) was found to be 0.0102 mg/mL (≈ 33.6 µM). On to `COC(=O)c1ccc(/C=C/C(=O)OCC(=O)c2ccc[nH]2)cc1`, for which the solubility (kinetic) came out at 0.0068 mg/mL (≈ 21.7 µM).

On to `COc1ccccc1S(=O)(=O)Nc1ccc2nc(C)sc2c1`, for which the kinetic solubility was determined as 0.0104 mg/mL (≈ 31.1 µM).

`NS(=O)(=O)c1ccc(CCNC(=O)CN2CCCCC2)cc1` displayed a solubility (kinetic) of 0.0454 mg/mL (≈ 140 µM). `CC(=O)c1cnc(Oc2cc(Cl)ccc2Cl)nc1C`: the solubility (kinetic) came to 0.0424 mg/mL (≈ 143 µM).

Regarding `Nc1c(C(=O)O)cnn1-c1ccc([N+](=O)[O-])cc1`, the kinetic solubility is > 0.0372 mg/mL. Under `Cc1ccc(S(=O)(=O)N(OCc2ccccc2)C(C)C(=O)O)cc1` (configuration not stated) stands 0.0521 mg/mL (≈ 149 µM); under `COc1cc(CNC(C)(C)C)ccc1OCC(=O)NC(C)(C)C`, > 0.0484 mg/mL; under `O=C1C2C3C=CC(CC3)C2C(=O)N1/N=C/c1ccco1` (configuration not stated), > 0.0405 mg/mL.

Turning to `CCOc1ccc2[nH]c3c(c2c1)CNCC3`, the kinetic solubility was 0.0259 mg/mL (≈ 120 µM). Take `Cn1c(=O)c(C(=O)NCc2ccccc2)c(O)c2ccccc21`: the solubility (kinetic) was < 0.0003 mg/mL. `Cc1ccc(CNC(=O)CCSCc2ccc(C)cc2)cc1` yielded a kinetic solubility of 0.0143 mg/mL (≈ 45.6 µM). In the case of `O=C(COC(=O)c1cccnc1Cl)NC(=O)NC1CCCCC1` it was > 0.051 mg/mL; in that of `Cc1ccc(S(=O)(=O)N(C)C)cc1NC(=O)Nc1ccccc1`, < 0.0002 mg/mL; in that of `O=C1c2cccc3cccc(c23)C(=O)N1c1ccccc1Cl`, 0.0008 mg/mL (≈ 2.6 µM). With `CC(C)CN1C(=O)NC2(CCCc3ccccc32)C1=O` (configuration not stated), the solubility (kinetic) is > 0.0409 mg/mL. `CCC(C)C(=O)Nc1nc2ccc(OC)cc2s1` (configuration not stated): the solubility (kinetic) was > 0.0397 mg/mL.

Compound `COc1cccc(N2CCN(C(=S)Nc3ccc(F)cc3)CC2)c1` showed a solubility (kinetic) of 0.0006 mg/mL (≈ 1.74 µM).

For `O=C(NCC1CCCCC1)c1cc2ccccc2cc1O`, the solubility (kinetic) is 0.0097 mg/mL (≈ 34.2 µM).

For the compound `O=C(NCCNC(=O)c1ccco1)c1ccc(F)cc1`, the kinetic solubility was > 0.0414 mg/mL. `O=C(NC1CCN(C(=O)NCc2ccccc2)CC1)c1ccc(F)cc1` came in with a solubility (kinetic) of 0.0093 mg/mL (≈ 26.2 µM). Under `CCCOc1ccc(C2=CSC3=NCCN23)cc1Cl` stands 0.0404 mg/mL (≈ 137 µM); under `COc1ccc(S(=O)(=O)N2CC(C)N(C(=O)N(C)C)C2C)cc1` (configuration not stated), > 0.0512 mg/mL. As for `Cn1cnnc1SCC(=O)Nc1ccc(OC(F)F)cc1`, the solubility (kinetic) was > 0.0471 mg/mL. Regarding `NC(=O)c1ccc(N2CCN(S(=O)(=O)c3cccs3)CC2)c([N+](=O)[O-])c1`, the kinetic solubility came to 0.0023 mg/mL (≈ 5.8 µM).

For `CN(C)c1cccc(Oc2nc3c(c(=O)n(C)c(=O)n3C)n2C)c1`, the kinetic solubility is 0.0324 mg/mL (≈ 98.4 µM). Under `CC(Oc1ccc(Br)cc1)C(=O)NCCCN1CCCC1=O` (configuration not stated) stands > 0.0554 mg/mL; under `COc1ccc(CCn2c([S-])nc3ccccc3c2=O)cc1.[Na+]`, 0.0015 mg/mL; under `C=CCN1C(=S)CC(c2ccccc2)=Nc2ccccc21`, 0.0033 mg/mL (≈ 11.3 µM). `CC1Cc2ccccc2N1C(=O)CSc1ncccn1` (configuration not stated): the solubility (kinetic) is > 0.0428 mg/mL. In the case of `CC1CN(C2=NC(=O)/C(=C/c3ccncc3)S2)CC(C)O1` (configuration not stated) it was > 0.0455 mg/mL; in that of `CN1CCN(c2ccccc2NC(=O)c2ccc(F)cc2)CC1`, > 0.047 mg/mL; in that of `CC(=O)Nc1ccc(-c2nc3ccccc3c(=O)o2)cc1`, 0.0005 mg/mL (≈ 1.78 µM). Regarding `COc1ccc(OCC(=O)Nc2ccc3c(c2)C(=O)NC3=O)cc1`, the solubility (kinetic) stood at 0.0024 mg/mL (≈ 7.36 µM). Under `CCCSc1ncnc2sc(C)c(C)c12` stands 0.0005 mg/mL (≈ 2.1 µM). `O=C(Nc1cccc(C(=O)Nc2ccccc2F)c1)c1ccccc1` yielded a solubility (kinetic) of 0.001 mg/mL (≈ 2.99 µM). Consider `CCOC(=O)c1sc(Nc2cccc(Cl)c2)nc1C`, for which the kinetic solubility was < 0.0003 mg/mL.

Take `COc1ccc(NS(=O)(=O)c2cn(C)cn2)cc1Cl`: the solubility (kinetic) turned out to be 0.017 mg/mL (≈ 56.3 µM). With `O=C(CNC(=O)Cc1ccc(Cl)cc1)NCc1ccco1`, the solubility (kinetic) came out at 0.0264 mg/mL (≈ 86.1 µM). With `Cc1ccc(NC(=O)C(=O)C2C(=O)Nc3ccccc32)cc1` (configuration not stated), the solubility (kinetic) is 0.0398 mg/mL (≈ 135 µM). Under `COc1ccc(C)c(NC(=O)C2CC(=O)NC3=C2C(=O)CCC3)c1` (configuration not stated) stands 0.0475 mg/mL (≈ 145 µM); under `CNC(=O)c1c(NC(=O)C2=COCCO2)sc(C)c1C`, > 0.0445 mg/mL. The compound `Cc1cccc(OCCC(=O)Nc2ccccc2C(N)=O)c1` yielded a solubility (kinetic) of 0.0442 mg/mL (≈ 148 µM). On to `CC1CCC(NC(=O)CN2C(=O)c3ccccc3S2(=O)=O)CC1` (configuration not stated), for which the solubility (kinetic) is > 0.0505 mg/mL. With `CCOc1ccc(Cl)cc1S(=O)(=O)N1CCC(C(=O)NCc2ccco2)CC1`, the solubility (kinetic) was 0.0036 mg/mL (≈ 8.43 µM). In the case of `C/C(=N\NC(=O)c1cccnc1)c1cccc([N+](=O)[O-])c1` it was > 0.0426 mg/mL; in that of `O=C(CNC(=O)c1ccco1)NNC(=O)c1ccc(Br)cc1`, > 0.0549 mg/mL. In the case of `O=c1c(Cc2ccc(F)cc2)c(O)ccn1CCCn1ccnc1` it was > 0.0491 mg/mL; in that of `COC(=O)c1ccc(COC(=O)CNC(=O)C2CCCCC2)cc1`, 0.0163 mg/mL (≈ 48.9 µM). Consider `CC(=O)Cc1nsc(NC(=O)c2ccc(Cl)cc2Cl)n1`, for which the kinetic solubility is > 0.0495 mg/mL. With `CC(C)c1cccc(C(C)C)c1NC(=O)CN1CCCC1`, the kinetic solubility is > 0.0433 mg/mL.
